This is an account of results in PubChem BioAssay (NCI).

The structures appear in SMILES notation. Several values for one entry are separate records, joined by “and”; a condition that tells them apart may be missing. Equal values may be shown once.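 Five concentrations, 48 hours, 96-well plates. GI50 is the concentration that inhibits growth by half. The concentration for full growth arrest is given as TGI.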 Some results are limits rather than exact numbers.

Some test systems named below: T-47D breast; MOLT-4 leukemia; BT-549 breast; NCI-H460 lung; RPMI-8226 leukemia; HL-60(TB) leukemia; EKVX NSCLC; NCI-H23 lung; COLO 205 colon; SK-OV-3 ovarian.
What all share (test): NCI tumour cell line growth inhibition, 48 h

As for `COc1c(CNC(=O)CCl)cc2[nH]c(C)cc2c1CNC(=O)CCl`, the GI50 was 3.55 µM with T-47D breast; 5.19 µM in the test on MOLT-4 leukemia; 17 µM in the test on BT-549 breast; 3.73 µM with NCI-H460 lung; 5.17 µM with RPMI-8226 leukemia; 4.32 µM in the test on HL-60(TB) leukemia. In addition, the GI50 was 11 µM in the test with EKVX NSCLC, 7.14 µM with NCI-H23 lung, 10.6 µM with COLO 205 colon and 12.4 µM with SK-OV-3 ovarian. For the same compound, the TGI with T-47D breast was found to be 23.1 µM; in the test with MOLT-4 leukemia it was 83.8 µM; with BT-549 breast it was 35.2 µM; with NCI-H460 lung, 15.6 µM; in the test on RPMI-8226 leukemia, 52.8 µM; with HL-60(TB) leukemia, 26.5 µM. The TGI in the test with EKVX NSCLC came to 27.5 µM; in the test with NCI-H23 lung, 31.3 µM; with COLO 205 colon, 27.8 µM; in the test on SK-OV-3 ovarian it was 86.4 µM.

In the case of `CCCCN(CCCC)CCCN=c1nc2c(c(N)n1-c1ccccc1)c(=S)n(-c1ccccc1)c(=S)n2-c1ccccc1`, the GI50 in the test with T-47D breast was 1.73 µM; with MOLT-4 leukemia, 0.141 µM; with BT-549 breast, 1.67 µM; in the test on NCI-H460 lung, 0.483 µM; in the test on RPMI-8226 leukemia it was 0.159 µM; with HL-60(TB) leukemia it was 0.211 µM. Further, the GI50 in the test on EKVX NSCLC was 0.84 µM; in the test with NCI-H23 lung, 1.88 µM; in the test on COLO 205 colon, 0.329 µM; in the test with SK-OV-3 ovarian, 1.55 µM. Also, the TGI with T-47D breast is 3.79 µM; with MOLT-4 leukemia, > 34.1 µM; with BT-549 breast, 3.38 µM; in the test on NCI-H460 lung, 1.71 µM; in the test with RPMI-8226 leukemia, 0.327 µM; in the test on HL-60(TB) leukemia it was > 100 µM. For the same compound, the TGI was 2.69 µM in the test with EKVX NSCLC, 3.97 µM with NCI-H23 lung, 1.39 µM with COLO 205 colon and 3.04 µM with SK-OV-3 ovarian.

Take `COc1cc([C@@H]2c3cc4c(cc3[C@@H](O[C@@H]3O[C@@H]5CO[C@@H](c6cccs6)O[C@H]5[C@H](O)[C@H]3O)[C@H]3COC(=O)[C@H]23)OCO4)cc(OC)c1O`: the GI50 with T-47D breast was 0.207 µM; in the test on MOLT-4 leukemia, 0.0313 µM; in the test on BT-549 breast, 0.344 µM; in the test on NCI-H460 lung, 0.023 µM; with HL-60(TB) leukemia it was 0.119 µM; in the test on EKVX NSCLC it was 4.1 µM. Besides, the GI50 in the test on NCI-H23 lung is 0.179 µM; in the test with COLO 205 colon, 1.88 µM; in the test with SK-OV-3 ovarian, 0.456 µM. For the same compound, the TGI with T-47D breast is 12.3 µM; with BT-549 breast, 4.37 µM; with NCI-H460 lung, 2.09 µM; in the test with RPMI-8226 leukemia, 6.48 µM; in the test on HL-60(TB) leukemia, 0.967 µM; in the test with EKVX NSCLC it was > 100 µM. Moreover, the TGI in the test on NCI-H23 lung worked out at 2.6 µM; with COLO 205 colon, 8.94 µM; in the test on SK-OV-3 ovarian, 10.2 µM.

With `N#Cc1c(NC(=O)CN2CCOCC2)sc2c1CCCC2`, the GI50 in the test on T-47D breast, in the test on MOLT-4 leukemia, in the test with BT-549 breast, with NCI-H460 lung, in the test with RPMI-8226 leukemia and in the test on HL-60(TB) leukemia was > 25 µM in each case. Moreover, the GI50 with EKVX NSCLC, in the test with NCI-H23 lung, in the test on COLO 205 colon and in the test with SK-OV-3 ovarian was > 25 µM each time. The TGI with T-47D breast, in the test on MOLT-4 leukemia, in the test on BT-549 breast, in the test on NCI-H460 lung, with RPMI-8226 leukemia and in the test with HL-60(TB) leukemia was > 25 µM in each case. In addition, the TGI in the test on EKVX NSCLC, in the test on NCI-H23 lung, with COLO 205 colon and with SK-OV-3 ovarian was > 25 µM each time.

In the case of `CN(C)CCCNc1nccc(-c2c(-c3ccc(F)cc3)nn3cc(C(F)(F)F)ccc23)n1`, the GI50 was 12.5 µM in the test on T-47D breast; 6.37 µM in the test on MOLT-4 leukemia; > 23.4 µM with BT-549 breast; 6.97 µM in the test on NCI-H460 lung; 10.2 µM in the test on RPMI-8226 leukemia; 4.55 µM in the test on HL-60(TB) leukemia. Also, the GI50 with EKVX NSCLC was 18.8 µM; in the test with NCI-H23 lung it was > 25 µM; in the test on COLO 205 colon it was 4.23 µM; with SK-OV-3 ovarian, 20.1 µM. Besides, the TGI was > 25 µM with T-47D breast; 17.3 µM in the test on MOLT-4 leukemia; > 25 µM with BT-549 breast; > 25 µM in the test with NCI-H460 lung; > 25 µM in the test with RPMI-8226 leukemia; 10.9 µM in the test on HL-60(TB) leukemia. The TGI is > 25 µM in the test with EKVX NSCLC, > 25 µM with NCI-H23 lung, 8.71 µM in the test on COLO 205 colon and > 25 µM with SK-OV-3 ovarian.

With `Cc1ccccc1N=Nc1c(O)[nH]c2ccccc12`, the TGI in the test on T-47D breast, with MOLT-4 leukemia, in the test with BT-549 breast, in the test on NCI-H460 lung, in the test with RPMI-8226 leukemia and in the test with HL-60(TB) leukemia was > 100 µM throughout. Also, the TGI with EKVX NSCLC, in the test with NCI-H23 lung, in the test with COLO 205 colon and with SK-OV-3 ovarian was > 100 µM each time.

Take `CC1=C(/C=C/C(C)=C/C=C/C(C)=C/C(=O)Nc2ccc(O)cc2)C(C)(C)CCC1`: the GI50 in the test with T-47D breast was 1.31 µM; in the test with MOLT-4 leukemia it was 0.391 µM; with BT-549 breast it was 0.826 µM; in the test with NCI-H460 lung, 2.58 µM; in the test on RPMI-8226 leukemia, 1.09 µM; with HL-60(TB) leukemia it was 0.278 µM. For the same compound, the GI50 in the test with EKVX NSCLC was 5.14 µM; in the test on NCI-H23 lung, 1.83 µM; with COLO 205 colon it was 1.58 µM; in the test on SK-OV-3 ovarian, 2.82 µM. Moreover, the TGI in the test with T-47D breast was 9.24 µM and 15.5 µM; with MOLT-4 leukemia, 2.11 µM and 5.53 µM; in the test with BT-549 breast it was 7.44 µM and 18.6 µM; in the test on NCI-H460 lung, 9.48 µM and 25.2 µM; in the test on RPMI-8226 leukemia, 8.9 µM and 9.14 µM; with HL-60(TB) leukemia, 1.31 µM and 9.51 µM. The TGI was 20.7 µM and 25.2 µM in the test on EKVX NSCLC; 5.41 µM and 5.3 µM in the test on NCI-H23 lung; 4.8 µM and 8.28 µM in the test on COLO 205 colon; 9.71 µM and 17.2 µM in the test with SK-OV-3 ovarian.

On to `COC(=O)c1ccc([N+](=O)[O-])c(O)c1`, for which the TGI with T-47D breast, with MOLT-4 leukemia, in the test on BT-549 breast, with NCI-H460 lung, in the test with RPMI-8226 leukemia and in the test with HL-60(TB) leukemia was > 100 µM throughout. Further, the TGI in the test on EKVX NSCLC, in the test on NCI-H23 lung, with COLO 205 colon and in the test with SK-OV-3 ovarian was > 100 µM throughout.
